Like-named read-outs stand apart in the source and are kept apart here.
Experiments:
[1] = tested on: NCI-H1650 cells; assay: 3D-TGA; format: cell-based; conditions: Homo sapiens
[2] = tested on: NCI-H1975 cells; assay: 3D-TGA; format: cell-based; conditions: Homo sapiens
[3] = tested on: NCI-H508 cells; assay: 3D-TGA; format: cell-based; conditions: Homo sapiens
[4] = tested on: MIA PaCa-2 cells; assay: 3D-TGA; format: cell-based, human
[5] = tested on: NCI-H1792 cells; assay: 3D-TGA; format: cell-based, human
[6] = tested on: NCI-H2172 cells; assay: 3D-TGA; format: cell-based; conditions: Homo sapiens
[7] = tested on: NCI-H820 cells; assay: 3D-TGA; format: cell-based; conditions: Homo sapiens
[8] = tested on: SK-CO-1 cells; assay: 3D-TGA; format: cell-based; conditions: Homo sapiens
[9] = tested on: LS411N cells; assay: 3D-TGA; format: cell-based; conditions: Homo sapiens, LS-411N
[10] = tested on: NCI-H358 cells; assay: 3D-TGA; format: cell-based, human
[11] = tested on: A-427 cells; assay: 3D-TGA; format: cell-based, human; conditions: A-427, LUN, KRAS G12D
Description: (§1) Cells were seeded in 3D cultures in a black-walled, clear-bottom, non-tissue culture treated, 384-well plate (3000 cells per well) using a 1:1 mixture of BME and a custom media and grown in a humidified incubator with 5% CO2 and 5% O2, which approximates capillary levels for each gas, at 37° C. […] Cells were assessed for cell proliferation using EdU cell proliferation staining. […] Cells were permeabilized with 30 μL of filtered 0.5% Triton X-100 in PBS for 20 minutes at room temperature. Samples were washed twice gently with PBS. Cells were stained utilizing click-iT chemistry by adding 20 μL of staining cocktail containing 2 mM copper sulfate, 8 μM sulfo-Cy5-azide, and 20 mg/ml ascorbic acid in PBS and incubated 30-60 minutes at room temperature in dark. […] Plates were imaged with the Molecular Devices Pico ImageXpress. Images were segmented and percentage of cells with EdU incorporation was quantified to calculate antiproliferative effects of the drugs.
(§2) Five (5)-ethynyl-2′-deoxyuridine (EdU) data was represented as percentage EdU positive cells quantified by high content imaging from the Molecular Devices ImageXpress® Pico.

[12] = tested on: Calu-6 cells; assay: 3D-TGA; format: cell-based, human; conditions: Homo sapiens; Calu-6, LUN, KRAS Q61K; read-out: IC50 in 3D-TGA, CDK-4-6 inhibitor alone
Description: as §1, §2

[13] = tested on: HT-29 cells; assay: 3D-TGA; format: cell-based, human; conditions: Homo sapiens; HT-29, COL, BRAF V600E; read-out: IC50 in 3D-TGA, CDK-4-6 inhibitor alone
Description: as §1, §2

[14] = tested on: A549 cells; assay: 3D-TGA; format: cell-based, human; conditions: Homo sapiens; A549, LUN, KRAS G12S; read-out: IC50 in 3D-TGA, CDK-4-6 inhibitor alone
Description: as §1, §2

[15] = in vivo
[16] = tested on: tumor models (cell lines); assay: Humanized 3D tumor growth assay (3D-TGA), tumor model panel / other cell lines; format: cell-based, human; conditions: read-out: IC50 in 3D-TGA Ifebemetinib, KRAS G12D, agent alone
Text: The humanized 3D tumor growth assay (3D-TGA) is an extracellular matrix (ECM)-based, 3D tumor model that more faithfully mimics the human tumor microenvironment (TME) with the goal of improving translational fidelity to patients. See Casneuf T, et al., “Interleukin-6 is a potential therapeutic target in interleukin-6 dependent, estrogen receptor-α-positive breast cancer,” Breast Cancer (Dove Med Press). […] MEK inhibition in the 3D-TGA. […]
All cell lines were validated by IDEXX upon receipt and assay setup. See Appendix for full cell line list.
as §1, §2

[17] = tested on: HPAF-II cells; assay: 3D-TGA; format: cell-based, human; conditions: read-out: IC50 in 3D-TGA Ifebemetinib, PAN, KRAS G12D, agent alone
Description: as §1, §2

[18] = tested on: CL-40 cells; assay: 3D-TGA; format: cell-based, human; conditions: read-out: IC50 in 3D-TGA Ifebemetinib; CL-40, COL, KRAS G12D; agent alone
Description: as §1, §2

[19] = tested on: NCI-H2030 cells; assay: 3D-TGA; format: cell-based, human; conditions: read-out: IC50 in 3D-TGA Ifebemetinib; NCI-H2030, LUN, KRAS G12C; agent alone
Description: as §1, §2

[20] = tested on: HPAC cells; assay: 3D-TGA; format: cell-based, human; conditions: read-out: IC50 in 3D-TGA Ifebemetinib, PAN, KRAS G12D, agent alone
Description: as §1, §2

[21] = tested on: PANC-1 cells; assay: 3D-TGA; format: cell-based, human; conditions: read-out: IC50 in 3D-TGA Ifebemetinib; PANC-1, PAN, KRAS G12D; agent alone
Description: as §1, §2

[22] = tested on: AsPC-1 cells; assay: 3D-TGA; format: cell-based, human; conditions: read-out: IC50 in 3D-TGA Ifebemetinib; AsPC-1, PAN, KRAS G12D; agent alone
Description: as §1, §2

[23] = tested on: LU99 cells; assay: 3D-TGA; format: cell-based, human; conditions: read-out: IC50 in 3D-TGA Ifebemetinib; LU99, LUN, KRAS G12C; agent alone
Description: as §1, §2

[24] = tested on: Panc 10.05 cells; assay: 3D-TGA; format: cell-based, human; conditions: read-out: IC50 in 3D-TGA Ifebemetinib; Panc 10.05, PAN, KRAS G12D; agent alone
Description: as §1, §2

[25] = tested on: NCI-H2122 cells; assay: 3D-TGA; format: cell-based, human; conditions: read-out: IC50 in 3D-TGA Ifebemetinib; NCI-H2122, LUN, KRAS G12C; agent alone
Description: as §1, §2

[26] = tested on: HCC-44 cells; assay: 3D-TGA; format: cell-based, human; conditions: read-out: IC50 in 3D-TGA Ifebemetinib; HCC-44, LUN, KRAS G12C; agent alone
Description: as §1, §2

[27] = human, in vivo; cited from earlier work
[28] = tested on: ERK-induced transcription in Colon-26 tumors; assay: Colon-26 tumor RNA sequencing, ERK transcriptome; format: in vivo, BALB/c mice; conditions: 100 mg/kg BID PO, day 18, Colon-26
[29] = Homo sapiens, read-out: IC50 in 3D-TGA, CDK-4-6 inhibitor alone
[30] = Homo sapiens, MIA PaCa-2, PAN, KRAS G12C, read-out: IC50 in 3D-TGA, CDK-4-6 inhibitor alone

In the case of `CN(C)C/C=C/C(=O)Nc1cc2c(Nc3ccc(F)c(Cl)c3)ncnc2cc1O[C@H]1CCOC1` [Afatinib, afatinib], the IC50 ([1]; NCI-H1650, read-out: IC50 in 3D-TGA Afatinib) is reported as 1000 nM, the IC50 ([2]; NCI-H1975, read-out: IC50 in 3D-TGA Afatinib) is reported as 1000 nM and the IC50 ([3]; NCI-H508, read-out: IC50 in 3D-TGA Afatinib) is reported as 500 to 1000 nM. It also gave an IC50 ([4]; Homo sapiens, MIA PaCa-2, read-out: IC50 in 3D-TGA Afatinib) of 1000 nM, an IC50 ([5]; Homo sapiens, NCI-H1792, read-out: IC50 in 3D-TGA Afatinib) of 1000 nM and an IC50 ([6]; NCI-H2172, read-out: IC50 in 3D-TGA Afatinib) of 1000 nM. It also gave an IC50 ([7]; NCI-H820, read-out: IC50 in 3D-TGA Afatinib) of 1000 nM, an IC50 ([8]; SK-CO-1, read-out: IC50 in 3D-TGA Afatinib) of 1000 nM and an IC50 ([9]; read-out: IC50 in 3D-TGA Afatinib) of 1000 nM. For the same compound, the IC50 ([10]; Homo sapiens, NCI-H358, read-out: IC50 in 3D-TGA Afatinib) was 1000 nM.
For `CC(=O)c1c(C)c2cnc(Nc3ccc(N4CCNCC4)cn3)nc2n(C2CCCC2)c1=O` [Palbociclib, palbociclib], the IC50 [11, 29] was 500 to 1000 nM, the IC50 [12] was 1000 nM and the IC50 [13] was 1000 nM. It also gave an IC50 [14] of 100 to 500 nM and an IC50 [4, 30] of 1000 nM.
Compound `O=C(c1ccc(F)c(F)c1Nc1ccc(I)cc1F)N1CC(O)([C@@H]2CCCCN2)C1` [cobimetinib] has a half-lives per cycle [15] of at most 0.55.
Work on `CC(=O)Nc1cccc(-n2c(=O)n(C3CC3)c(=O)c3c(Nc4ccc(I)cc4F)n(C)c(=O)c(C)c32)c1` [trametinib] yielded a half-lives per cycle [15] of at most 0.25.
For ifebemetinib, the IC50 ([16]; COLO 678, COL) was over 1000 nM, the IC50 ([16]; T3M-10, LUN) was over 1000 nM and the IC50 [17] was over 1000 nM. The IC50 ([11]; read-out: IC50 in 3D-TGA Ifebemetinib, agent alone) was over 1000 nM, the IC50 [18] was over 1000 nM and the IC50 [19] was 500 to 1000 nM. For the same compound, the IC50 [20] was over 1000 nM, the IC50 [21] was over 1000 nM and the IC50 [22] was over 1000 nM. The IC50 [23] was over 1000 nM, the IC50 [24] was over 1000 nM and the IC50 [25] was over 1000 nM. The IC50 [26] was over 1000 nM, the IC50 ([4]; read-out: IC50 in 3D-TGA Ifebemetinib, MIA PaCa-2, PAN, KRAS G12C, agent alone) was over 1000 nM and the IC50 ([5]; read-out: IC50 in 3D-TGA Ifebemetinib, NCI-H1792, LUN, KRAS G12C, agent alone) was over 1000 nM. The IC50 ([10]; read-out: IC50 in 3D-TGA Ifebemetinib, NCI-H358, LUN, KRAS G12C, agent alone) was over 1000 nM.
In the case of `Cn1cnc2c(F)c(Nc3ccc(Br)cc3F)c(C(=O)NOCCO)cc21` [binimetinib], the half-lives [27] is given as 3.5 h.
Work on `CCN1CCN(Cc2ccc(Nc3ncc(F)c(-c4cc(F)c5nc(C)n(C(C)C)c5c4)n3)nc2)CC1` [Abemaciclib, abemaciclib] yielded an IC50 [11, 29] of 100 to 500 nM, an IC50 [12] of 1000 nM and an IC50 [13] of 1000 nM. It also gave an IC50 [14] of 100 to 500 nM and an IC50 [4, 30] of 1000 nM.
In the case of `Cn1cnc2c(F)c(Nc3ccc(Br)cc3Cl)c(C(=O)NOCCO)cc21` [selumetinib], the half-lives [27] is given as 6.2 h and the “ERK transcriptome, 2 h vs 12 h post-dose” value [28] is given as “sustained MAPK pathway suppression”.
With `C#Cc1cccc(Nc2ncnc3cc(OCCOC)c(OCCOC)cc23)c1` [Erlotinib, erlotinib] the IC50 ([1]; read-out: IC50 in 3D-TGA Erlotinib, NCI-H1650, LUN, EGFR E746_A750 del, agent alone) was 1000 nM, the IC50 ([2]; read-out: IC50 in 3D-TGA Erlotinib, NCI-H1975, LUN, EGFR L858R, agent alone) was 1000 nM and the IC50 ([3]; read-out: IC50 in 3D-TGA Erlotinib, NCI-H508, COL, BRAF G596R, agent alone) was 1000 nM. For the same compound, the IC50 ([4]; Homo sapiens, read-out: IC50 in 3D-TGA Erlotinib, MIA PACA-2, PAN, KRAS G12C, agent alone) was 1000 nM, the IC50 ([5]; Homo sapiens, read-out: IC50 in 3D-TGA Erlotinib, NCI-H1792, LUN, KRAS G12C, agent alone) was 1000 nM and the IC50 ([6]; read-out: IC50 in 3D-TGA Erlotinib, NCI-H2172, LUN, EGFR L858R, agent alone) was 1000 nM. For the same compound, the IC50 ([7]; read-out: IC50 in 3D-TGA Erlotinib, NCI-H820, LUN, EGFR T790M, agent alone) was 1000 nM, the IC50 ([8]; read-out: IC50 in 3D-TGA Erlotinib, SK-CO-1, COL, KRAS G12V, agent alone) was 1000 nM and the IC50 ([9]; read-out: IC50 in 3D-TGA Erlotinib, LS411N, COL, BRAF V600E, agent alone) was 1000 nM. For the same compound, the IC50 ([10]; Homo sapiens, read-out: IC50 in 3D-TGA Erlotinib, NCI-H358, LUN, KRAS G12C, agent alone) was 1000 nM.
